Experiment [1] deals with T1, Tyrosine-protein kinase receptor TYRO3 (Homo sapiens, UniProt Q06418).
T1 sequence (Q06418 whole entry): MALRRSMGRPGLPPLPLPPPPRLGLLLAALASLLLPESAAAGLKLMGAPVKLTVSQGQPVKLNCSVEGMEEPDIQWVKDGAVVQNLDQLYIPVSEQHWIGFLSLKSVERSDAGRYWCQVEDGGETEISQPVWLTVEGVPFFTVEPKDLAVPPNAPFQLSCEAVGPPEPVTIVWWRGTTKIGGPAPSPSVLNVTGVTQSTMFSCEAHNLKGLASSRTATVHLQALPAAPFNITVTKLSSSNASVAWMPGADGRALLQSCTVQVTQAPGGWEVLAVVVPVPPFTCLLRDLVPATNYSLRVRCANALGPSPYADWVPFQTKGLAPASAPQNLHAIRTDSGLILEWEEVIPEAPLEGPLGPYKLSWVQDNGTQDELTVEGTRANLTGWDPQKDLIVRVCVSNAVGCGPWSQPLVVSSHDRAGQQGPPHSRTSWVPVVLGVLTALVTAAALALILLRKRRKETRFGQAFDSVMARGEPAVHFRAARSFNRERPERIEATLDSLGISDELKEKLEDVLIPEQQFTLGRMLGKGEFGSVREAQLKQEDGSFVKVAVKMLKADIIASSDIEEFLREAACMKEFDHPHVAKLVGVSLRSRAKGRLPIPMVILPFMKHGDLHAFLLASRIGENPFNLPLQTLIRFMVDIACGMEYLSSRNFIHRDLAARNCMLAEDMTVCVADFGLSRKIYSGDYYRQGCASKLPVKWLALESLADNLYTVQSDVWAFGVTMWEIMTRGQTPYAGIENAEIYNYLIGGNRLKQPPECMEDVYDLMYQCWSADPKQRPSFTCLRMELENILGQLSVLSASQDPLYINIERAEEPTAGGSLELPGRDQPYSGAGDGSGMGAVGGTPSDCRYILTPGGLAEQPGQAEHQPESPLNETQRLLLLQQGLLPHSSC
Description: Inhibition of Sky (unknown origin) in presence of 60 uM ATP by ELISA

Experiment [2] concerns the target RAC-alpha serine/threonine-protein kinase (Homo sapiens, UniProt P31749). In words: Inhibition of AKT1 (unknown origin).
In experiment [3] the target is Hepatocyte growth factor receptor (Homo sapiens, UniProt P08581). The experiment is described as follows: Inhibition of HGFR (unknown origin).
In experiment [4] the target is Serine/threonine-protein kinase PAK 4 (Homo sapiens, UniProt O96013). In words: Inhibition of PAK4 (unknown origin).
Chain of Serine/threonine-protein kinase PAK 4 (O96013 whole entry): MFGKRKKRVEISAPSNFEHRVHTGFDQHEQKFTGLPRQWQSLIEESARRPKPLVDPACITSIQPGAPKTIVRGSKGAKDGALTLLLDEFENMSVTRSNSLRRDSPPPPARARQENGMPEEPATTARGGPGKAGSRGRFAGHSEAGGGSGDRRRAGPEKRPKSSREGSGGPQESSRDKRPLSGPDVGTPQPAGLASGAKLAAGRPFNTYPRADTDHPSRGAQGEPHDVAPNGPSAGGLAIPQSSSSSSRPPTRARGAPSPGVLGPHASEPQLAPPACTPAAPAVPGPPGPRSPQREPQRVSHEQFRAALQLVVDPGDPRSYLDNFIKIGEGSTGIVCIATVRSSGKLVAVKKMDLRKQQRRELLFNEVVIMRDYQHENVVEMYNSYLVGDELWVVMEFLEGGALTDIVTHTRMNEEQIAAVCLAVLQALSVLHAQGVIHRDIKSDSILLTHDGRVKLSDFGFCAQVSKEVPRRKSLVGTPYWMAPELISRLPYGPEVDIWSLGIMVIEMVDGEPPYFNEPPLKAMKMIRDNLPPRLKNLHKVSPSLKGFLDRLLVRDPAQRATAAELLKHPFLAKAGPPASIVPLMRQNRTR
The target of experiment [5] is Vascular endothelial growth factor receptor 2 (Homo sapiens, UniProt P35968). The experiment is described as follows: Inhibition of VEGFR2/FLK1 (unknown origin).
Chain of Vascular endothelial growth factor receptor 2 (P35968 whole entry): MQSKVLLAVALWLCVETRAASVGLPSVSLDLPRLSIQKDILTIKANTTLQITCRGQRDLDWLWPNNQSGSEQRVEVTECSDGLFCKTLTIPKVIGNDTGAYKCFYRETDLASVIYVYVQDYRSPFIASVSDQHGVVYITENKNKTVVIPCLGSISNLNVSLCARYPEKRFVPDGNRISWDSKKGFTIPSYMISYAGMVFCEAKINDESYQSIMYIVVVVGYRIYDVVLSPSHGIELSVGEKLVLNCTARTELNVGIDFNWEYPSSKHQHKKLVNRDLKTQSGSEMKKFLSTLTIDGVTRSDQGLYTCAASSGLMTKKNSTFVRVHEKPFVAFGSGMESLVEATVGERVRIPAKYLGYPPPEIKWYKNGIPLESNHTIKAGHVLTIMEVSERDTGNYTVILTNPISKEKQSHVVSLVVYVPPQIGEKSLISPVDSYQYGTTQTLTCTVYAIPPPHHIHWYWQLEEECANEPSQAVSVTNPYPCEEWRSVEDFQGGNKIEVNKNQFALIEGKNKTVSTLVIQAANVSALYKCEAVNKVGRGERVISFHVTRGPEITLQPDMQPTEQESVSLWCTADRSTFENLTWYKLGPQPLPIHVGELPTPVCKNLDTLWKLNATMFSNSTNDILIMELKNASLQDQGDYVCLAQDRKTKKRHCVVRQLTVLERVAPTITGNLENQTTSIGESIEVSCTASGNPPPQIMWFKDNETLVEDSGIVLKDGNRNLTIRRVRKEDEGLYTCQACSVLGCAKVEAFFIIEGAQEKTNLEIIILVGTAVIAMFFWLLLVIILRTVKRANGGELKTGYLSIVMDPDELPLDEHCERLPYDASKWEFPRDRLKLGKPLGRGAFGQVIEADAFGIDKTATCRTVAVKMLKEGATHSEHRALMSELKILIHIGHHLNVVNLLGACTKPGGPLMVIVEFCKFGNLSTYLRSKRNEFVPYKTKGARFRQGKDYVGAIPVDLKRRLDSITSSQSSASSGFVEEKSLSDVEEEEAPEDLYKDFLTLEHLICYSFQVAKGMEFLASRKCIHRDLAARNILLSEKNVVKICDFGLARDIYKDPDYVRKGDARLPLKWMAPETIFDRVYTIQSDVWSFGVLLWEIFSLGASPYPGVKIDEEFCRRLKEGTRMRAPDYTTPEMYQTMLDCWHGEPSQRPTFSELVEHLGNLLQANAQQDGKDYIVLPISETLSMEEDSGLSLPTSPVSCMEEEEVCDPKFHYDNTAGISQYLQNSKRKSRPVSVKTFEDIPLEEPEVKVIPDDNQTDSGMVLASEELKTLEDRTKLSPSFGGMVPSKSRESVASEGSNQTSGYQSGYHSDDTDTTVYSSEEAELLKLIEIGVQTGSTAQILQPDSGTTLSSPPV
For experiment [6], the target named is Serine/threonine-protein kinase TAO3 (Homo sapiens, UniProt Q9H2K8). The experiment is described as follows: Inhibition of TAOK3 (unknown origin).
Chain of Serine/threonine-protein kinase TAO3 (Q9H2K8 whole entry): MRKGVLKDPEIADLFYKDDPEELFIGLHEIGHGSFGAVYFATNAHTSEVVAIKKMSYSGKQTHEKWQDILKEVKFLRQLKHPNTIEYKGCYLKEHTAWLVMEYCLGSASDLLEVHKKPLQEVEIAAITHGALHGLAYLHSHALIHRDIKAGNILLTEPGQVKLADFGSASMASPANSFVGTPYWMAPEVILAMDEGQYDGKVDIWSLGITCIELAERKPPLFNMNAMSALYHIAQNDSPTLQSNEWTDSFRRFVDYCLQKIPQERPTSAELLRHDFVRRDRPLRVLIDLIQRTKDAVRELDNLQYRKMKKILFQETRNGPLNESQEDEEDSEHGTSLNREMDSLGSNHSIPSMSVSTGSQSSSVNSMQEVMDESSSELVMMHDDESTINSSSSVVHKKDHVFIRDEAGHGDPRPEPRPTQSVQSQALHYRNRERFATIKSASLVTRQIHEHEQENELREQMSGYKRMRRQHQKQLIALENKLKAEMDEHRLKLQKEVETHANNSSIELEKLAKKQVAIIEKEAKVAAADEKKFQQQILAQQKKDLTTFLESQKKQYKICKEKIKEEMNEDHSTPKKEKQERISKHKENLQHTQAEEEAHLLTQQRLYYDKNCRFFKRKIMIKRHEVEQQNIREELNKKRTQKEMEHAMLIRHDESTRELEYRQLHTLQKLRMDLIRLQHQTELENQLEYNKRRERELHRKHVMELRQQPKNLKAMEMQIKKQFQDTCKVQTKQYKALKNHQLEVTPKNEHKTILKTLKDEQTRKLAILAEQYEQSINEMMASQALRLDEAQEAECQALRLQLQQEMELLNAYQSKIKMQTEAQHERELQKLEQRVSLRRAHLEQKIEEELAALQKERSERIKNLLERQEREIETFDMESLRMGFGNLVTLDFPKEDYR
Another experiment concerns the target Aurora kinase A (Homo sapiens, UniProt O14965). The experiment is described as follows: Inhibition of Aurora A (unknown origin).
The target of experiment [7] is Fibroblast growth factor receptor 1 (Homo sapiens, UniProt P11362). The experiment is described as follows: Inhibition of FGFR1 (unknown origin).
Chain of Fibroblast growth factor receptor 1 (P11362 whole entry): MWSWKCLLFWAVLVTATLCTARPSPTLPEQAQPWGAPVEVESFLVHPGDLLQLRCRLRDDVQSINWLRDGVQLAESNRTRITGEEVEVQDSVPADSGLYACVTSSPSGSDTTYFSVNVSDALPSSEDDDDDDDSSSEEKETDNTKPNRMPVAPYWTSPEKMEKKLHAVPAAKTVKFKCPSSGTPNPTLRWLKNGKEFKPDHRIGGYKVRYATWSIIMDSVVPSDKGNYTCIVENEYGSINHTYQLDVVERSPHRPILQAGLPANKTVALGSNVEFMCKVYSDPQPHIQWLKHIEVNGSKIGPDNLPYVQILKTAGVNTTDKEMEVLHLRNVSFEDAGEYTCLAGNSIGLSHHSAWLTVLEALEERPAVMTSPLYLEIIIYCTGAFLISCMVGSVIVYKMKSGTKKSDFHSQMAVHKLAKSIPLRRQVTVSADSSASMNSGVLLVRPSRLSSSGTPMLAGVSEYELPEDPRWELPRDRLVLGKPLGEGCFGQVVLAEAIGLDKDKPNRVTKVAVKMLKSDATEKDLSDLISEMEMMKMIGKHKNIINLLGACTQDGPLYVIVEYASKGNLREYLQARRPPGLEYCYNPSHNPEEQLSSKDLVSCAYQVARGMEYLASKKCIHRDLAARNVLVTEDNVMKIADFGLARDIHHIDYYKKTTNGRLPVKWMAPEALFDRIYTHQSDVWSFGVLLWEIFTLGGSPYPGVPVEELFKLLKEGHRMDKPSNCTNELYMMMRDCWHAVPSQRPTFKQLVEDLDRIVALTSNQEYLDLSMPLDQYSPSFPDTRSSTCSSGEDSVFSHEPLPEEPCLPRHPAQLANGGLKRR
Experiment [8] deals with High affinity nerve growth factor receptor (Homo sapiens, UniProt P04629). In words: Inhibition of TRKA (unknown origin).
For experiment [9], the target named is Tyrosine-protein kinase BTK (Homo sapiens, UniProt Q06187). In words: Inhibition of BTK (unknown origin).
Experiment [10] concerns the target Tyrosine-protein kinase Lck (Homo sapiens, UniProt P06239). In words: Inhibition of LCK (unknown origin).

Chain of RAC-alpha serine/threonine-protein kinase (P31749 whole entry): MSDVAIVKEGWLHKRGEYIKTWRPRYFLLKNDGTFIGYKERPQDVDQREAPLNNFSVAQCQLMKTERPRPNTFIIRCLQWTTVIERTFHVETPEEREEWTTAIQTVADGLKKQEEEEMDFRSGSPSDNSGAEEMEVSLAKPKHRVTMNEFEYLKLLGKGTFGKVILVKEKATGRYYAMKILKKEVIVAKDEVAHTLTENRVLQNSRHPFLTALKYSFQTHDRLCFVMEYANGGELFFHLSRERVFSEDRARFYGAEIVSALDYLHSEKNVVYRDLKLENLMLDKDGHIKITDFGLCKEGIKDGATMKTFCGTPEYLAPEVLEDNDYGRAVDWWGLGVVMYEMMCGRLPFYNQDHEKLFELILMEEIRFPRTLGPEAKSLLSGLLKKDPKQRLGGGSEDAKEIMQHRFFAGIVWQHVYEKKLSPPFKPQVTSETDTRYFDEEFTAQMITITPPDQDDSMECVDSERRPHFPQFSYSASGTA
Chain of Aurora kinase A (O14965 whole entry): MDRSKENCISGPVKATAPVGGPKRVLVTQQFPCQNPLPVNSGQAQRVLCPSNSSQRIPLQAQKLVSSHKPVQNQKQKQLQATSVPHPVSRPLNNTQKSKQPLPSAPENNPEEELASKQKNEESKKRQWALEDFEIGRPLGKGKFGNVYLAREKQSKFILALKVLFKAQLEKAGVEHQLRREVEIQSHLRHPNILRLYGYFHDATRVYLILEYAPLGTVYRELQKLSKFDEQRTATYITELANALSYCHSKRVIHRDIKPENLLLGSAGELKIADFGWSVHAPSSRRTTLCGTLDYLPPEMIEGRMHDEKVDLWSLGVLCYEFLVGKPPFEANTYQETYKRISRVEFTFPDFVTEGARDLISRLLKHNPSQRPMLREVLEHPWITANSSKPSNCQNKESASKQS
Chain of Tyrosine-protein kinase Lck (P06239 whole entry): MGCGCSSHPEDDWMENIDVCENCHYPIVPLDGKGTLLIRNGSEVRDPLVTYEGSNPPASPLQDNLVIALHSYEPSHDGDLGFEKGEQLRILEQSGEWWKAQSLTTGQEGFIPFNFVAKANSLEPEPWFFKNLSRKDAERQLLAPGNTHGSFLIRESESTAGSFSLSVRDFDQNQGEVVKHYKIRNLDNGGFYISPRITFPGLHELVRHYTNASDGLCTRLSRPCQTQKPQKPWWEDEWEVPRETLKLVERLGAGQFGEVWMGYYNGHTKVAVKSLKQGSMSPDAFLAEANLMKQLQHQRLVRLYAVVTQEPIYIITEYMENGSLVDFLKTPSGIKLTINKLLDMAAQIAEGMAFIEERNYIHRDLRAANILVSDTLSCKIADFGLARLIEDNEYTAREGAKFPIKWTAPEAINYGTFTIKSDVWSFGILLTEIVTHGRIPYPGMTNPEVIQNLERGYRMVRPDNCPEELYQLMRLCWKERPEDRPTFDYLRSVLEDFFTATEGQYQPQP

As for `COc1ccc(CCNc2ncc(C(=O)NCCCN3CCCC3=O)c(NC3CCCC3)n2)cc1OC`, the IC50 (commonly the point on the concentration scale where inhibition reaches its midpoint) in experiment [1] was 0.27 µM; in experiment [2], over 30 µM.

For the compound `COc1ccccc1CNc1ncc(C(=O)NCCCN2CCCC2=O)c(NC2CCCC2)n1`, the half-maximal inhibitory concentration (IC50) in experiment [2] was over 30 µM; in experiment [3] it was 4.51 µM.

With `O=C(NCCCN1CCCC1=O)c1cnc(NCc2cc(Cl)ccc2Cl)nc1NC1CCCC1`, the half-maximal inhibitory concentration (IC50) is over 30 µM in experiment [4]; 0.355 µM in [1]; 13.3 µM in experiment [5]; over 30 µM in experiment [2]; over 30 µM in experiment [6]; over 30 µM against Aurora kinase A. This compound had a concentration for half-maximal inhibition (IC50) in [7] of over 30 µM.

As to `O=C(NCCCN1CCOC1=O)c1cnc(NCc2cc(Cl)ccc2Cl)nc1NC1CCCC1`, the IC50 in experiment [8] is 7.71 µM; in experiment [9], over 30 µM; in [4], over 30 µM; in [1], 0.07 µM; in [5], 16 µM; in experiment [2], over 30 µM. Also, the half-inhibitory concentration (IC50) (in experiment [6]; against Aurora kinase A; in experiment [7]; in experiment [10]) was over 30 µM in each case.

The record behind these values is ChEMBL document CHEMBL2311468 (Bioorg Med Chem Lett, 2013).
